Reference: patent publication US9605002B2, “5,5-heteroaromatic anti-infective compounds” (priority 2012, dated 2017)
In brackets after ≈: the same amount, converted by molar mass. Several values for one entry are separate records, joined by “and”; a condition that tells them apart may be missing. Identical values can stand only once.

How the values were obtained:
[1] = tested on: Drug sensitive Mtb clinical strain #2; test: MIC against clinical Mtb strains; format: cell-based; details: Mycobacterium tuberculosis, 7H9/glucose/glycerol/BSA/0.05% Tween 80, average of three
[2] = tested on: Drug sensitive Mtb clinical strain #1; test: MIC against clinical Mtb strains; format: cell-based; details: Mycobacterium tuberculosis, 7H9/glucose/glycerol/BSA/0.05% Tween 80, average of three
[3] = tested on: VERO kidney epithelial cells; test: VERO toxicity assessment; details: for IC50: Chlorocebus sabaeus, Vero, read-out: VERO: IC50
[4] = tested on: M. tuberculosis (Mtb) H37Rv; test: Microplate Alamar Blue Assay (MABA), 7H12 media, replicating Mtb; format: cell-based; details: Mycobacterium tuberculosis, 7H12 media (no glycerol), read-out: 7H12 media: Replicating H37Rv Mtb: MIC 90
[5] = tested on: M. tuberculosis (Mtb) H37Rv; test: Microplate Alamar Blue Assay (MABA), GAS media, replicating Mtb; format: cell-based, Mycobacterium tuberculosis; details: for MIC90: Mycobacterium tuberculosis, GAS (glycerol-alanine-salt) media, replicating H37Rv, read-out: GAS media: replicating H37Rv Mtb: MIC 90

SMILES	MIC90 [1]	MIC90 [2]	IC50 [3] [µM]	therapeutic window ([3]; statement in words)	MIC90 [4] [µM]	MIC90 [5] [µM]	in vitro activity against H37Rv TB ([5]; statement in words, medium not stated)
Cc1cn2c(C(=O)NCc3ccc(Oc4ccc(F)cc4)cc3)c(C)nc2s1 [ND-010081]	< 0.025 µg/mL and < 0.01 µM	< 0.01 µM and < 0.025 µg/mL	2 to 10	sufficient therapeutic window for in vivo treatment	< 2	< 2	comparable to the current clinical candidates
Cc1nc2sc(F)cn2c1C(=O)NCc1cccc(Cl)c1 [ND-020056]			< 32		2 to 10 (≈ 0.648 to 3.24 µg/mL)	< 2	
Cc1cn2c(C(=O)NCc3cccc(Oc4ccc(C(F)(F)F)cc4)c3)c(C)nc2s1 [ND-020057]			< 32		< 2	< 2	
Cc1cn2c(C(=O)NCc3cccc(Oc4ccc(Cl)cc4)c3)c(C)nc2s1 [ND-020058]			20 to 32		< 2	< 2	
Cc1cn2c(C(=O)NCc3cccc(Oc4ccc(F)cc4)c3)c(C)nc2s1 [ND-020059]			20 to 32		< 2	< 2	
Cc1cn2c(C(=O)NCc3ccc(Oc4ccc(Cl)cc4)cc3)c(C)nc2s1 [ND-020060]			10 to 20		< 2	< 2	
Cc1nc2sc(F)cn2c1C(=O)NCc1ccc2c(c1)OCC2 [ND-020061]			< 32		< 2	< 2	
Cc1nc2sc(Cl)cn2c1C(=O)NCc1ccc2c(c1)OCC2 [ND-020062]			< 32		< 2	< 2	
Cc1nc2sc(C(F)(F)F)cn2c1C(=O)NCc1ccc2c(c1)OCC2 [ND-020063]			< 32		2 to 10 (≈ 0.763 to 3.81 µg/mL)	< 2	
Cc1cn2c(C(=O)NCc3ccc(-n4cccn4)cc3)c(C)nc2s1 [ND-020064]			20 to 32		< 2	< 2	
Cc1cn2c(C(=O)NCc3ccc(-n4cnnc4)cc3)c(C)nc2s1 [ND-020065]			20 to 32		2 to 10 (≈ 0.705 to 3.52 µg/mL)	2 to 10	
Cc1cn2c(C(=O)NCc3ccc4nc(-c5ccc(F)cc5)oc4c3)c(C)nc2s1 [ND-020066]			20 to 32		2 to 10 (≈ 0.841 to 4.2 µg/mL)	< 2	
CCc1nc2sc(C)cn2c1C(=O)NCc1ccc2nc(-c3ccc(F)cc3)oc2c1 [ND-020067]			20 to 32		2 to 10 (≈ 0.869 to 4.34 µg/mL)	< 2	
Cc1cn2c(C(=O)NCc3cccc(N4CC(C)CC(C)C4)c3)c(C)nc2s1 (stereo not drawn) [ND-020068]			< 32		< 2	< 2	
Cc1cn2c(C(=O)NCc3ccc(N4CC(C)CC(C)C4)cc3)c(C)nc2s1 (stereo not drawn) [ND-020069]			20 to 32		< 2	< 2	
Cc1cn2c(C(=O)NCc3ccc(N4CCC(=O)CC4)cc3)c(C)nc2s1 [ND-020070]			20 to 32		2 to 10 (≈ 0.765 to 3.82 µg/mL)	< 2	
Cc1cn2c(C(=O)NCc3ccc(N4CCCC4)cc3)c(C)nc2s1 [ND-020071]			20 to 32		< 2	< 2	
Cc1cn2c(C(=O)NCc3cccc(N4CCC(=O)CC4)c3)c(C)nc2s1 [ND-020072]			< 32		< 2	< 2	
Cc1cn2c(C(=O)NCc3cccc(N4CCCC4)c3)c(C)nc2s1 [ND-020073]			< 32		< 2	< 2	
Cc1cn2c(C(=O)NCc3ccc(N4CC(C)OC(C)C4)cc3)c(C)nc2s1 (stereo not drawn) [ND-020074]			20 to 32		< 2	< 2	
Cc1cn2c(C(=O)NCc3cccc(N4CC(C)OC(C)C4)c3)c(C)nc2s1 (stereo not drawn) [ND-020075]			< 32		< 2	< 2	
Cc1cn2c(C(=O)NCc3ccc(F)c(N4CCOCC4)c3)c(C)nc2s1 [ND-020076]			< 32		< 2	< 2	
Cc1cn2c(C(=O)NCc3ccc4ccn(C)c4c3)c(C)nc2s1 [ND-020077]			< 32		< 2	< 2	
CCc1nc2sc(C)cn2c1C(=O)NCc1ccc2ccn(C)c2c1 [ND-020078]			< 32		< 2	< 2	
Cc1cn2c(C(=O)NCc3ccc4c(ccn4C)c3)c(C)nc2s1 [ND-020079]			< 32		< 2	< 2	
Cc1cn2c(C(=O)NCc3ccc4c(ccn4C)c3)c(C(F)(F)F)nc2s1 [ND-020080]			< 32		< 2	< 2	
Cc1cn2c(C(=O)NCCc3ccc(Cl)cc3)c(C)nc2s1 [ND-020081]			< 32		< 2	< 2	
O=[N+]([O-])c1cn2c(n1)OC[C@@H](OCc1ccc(OC(F)(F)F)cc1)C2 [PA-824, reference compound]	> 13.9 µM and > 5 µg/mL	0.45 µM to 0.86 µM and 0.16 µg/mL to 0.31 µg/mL					
